# Reference: patent US9206188B2, “Substituted pyrrolo[2,3-b]pyridines as ITK and JAK inhibitors” (Arrien Pharmaceuticals LLC, priority 2013, dated 2015)
# Read-outs that look alike come from different tables or passages of the source.
# Experiments:
# [1] = biological target: ITK (Homo sapiens (Human), UniProt Q08881); experiment: ITK kinase assay (radiometric filter binding, 10 μM ATP); type: biochemical
# Method: (§1) All additions were done on ice, followed by the addition of ATP mix. Wells were uniformly mixed using an Eppendorff plate shaker and incubated at 30° C. for 20 min, and stopped by the addition of 5 μL of 3% phosphoric acid. Volume was increased to 100 μL by adding 0.8% phosphoric acid which was then transferred to PC filter mats (Millipore), pre-equilibrated with 70% ethanol and water. Plates were washed thrice with 100 μL 0.8% phosphoric acid and dried for an hour at 60° C. 100 μL scintillation fluid was added into each well and reading taken in Perkin Elmer TOPCOUNT beta counter.
# (§2) The reactions were carried out at 10 μM ATP for ITK, JAK3 and other TEC and Janus family of kinase.
# [2] = biological target: JAK3 (Homo sapiens (Human), UniProt P52333); experiment: JAK3 kinase assay (radiometric filter binding, 10 μM ATP); type: biochemical
# Method: as §1, §2
# [3] = 10-dose IC50 mode, 10 μM ATP, read-out: ITK kinase inhibition
# [4] = 10-dose IC50 mode, 10 μM ATP, read-out: JAK3 kinase inhibition
# Sequence of ITK (Q08881 whole entry): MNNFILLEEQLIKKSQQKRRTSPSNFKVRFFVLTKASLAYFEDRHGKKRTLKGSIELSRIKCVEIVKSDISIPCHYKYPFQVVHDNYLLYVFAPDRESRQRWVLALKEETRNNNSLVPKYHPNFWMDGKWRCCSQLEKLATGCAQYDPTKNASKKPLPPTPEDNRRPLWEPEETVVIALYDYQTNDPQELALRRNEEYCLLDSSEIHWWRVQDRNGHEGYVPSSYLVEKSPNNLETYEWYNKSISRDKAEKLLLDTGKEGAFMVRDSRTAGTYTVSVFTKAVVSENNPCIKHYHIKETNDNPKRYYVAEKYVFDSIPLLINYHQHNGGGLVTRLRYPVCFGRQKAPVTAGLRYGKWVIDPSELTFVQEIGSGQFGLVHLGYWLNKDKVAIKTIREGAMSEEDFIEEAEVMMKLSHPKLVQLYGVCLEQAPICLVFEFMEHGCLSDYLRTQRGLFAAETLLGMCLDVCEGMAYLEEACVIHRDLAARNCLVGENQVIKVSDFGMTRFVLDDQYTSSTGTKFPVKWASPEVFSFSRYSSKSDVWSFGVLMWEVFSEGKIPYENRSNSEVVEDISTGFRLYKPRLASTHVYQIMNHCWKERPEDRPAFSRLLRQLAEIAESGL
# Sequence of JAK3 (P52333 whole entry): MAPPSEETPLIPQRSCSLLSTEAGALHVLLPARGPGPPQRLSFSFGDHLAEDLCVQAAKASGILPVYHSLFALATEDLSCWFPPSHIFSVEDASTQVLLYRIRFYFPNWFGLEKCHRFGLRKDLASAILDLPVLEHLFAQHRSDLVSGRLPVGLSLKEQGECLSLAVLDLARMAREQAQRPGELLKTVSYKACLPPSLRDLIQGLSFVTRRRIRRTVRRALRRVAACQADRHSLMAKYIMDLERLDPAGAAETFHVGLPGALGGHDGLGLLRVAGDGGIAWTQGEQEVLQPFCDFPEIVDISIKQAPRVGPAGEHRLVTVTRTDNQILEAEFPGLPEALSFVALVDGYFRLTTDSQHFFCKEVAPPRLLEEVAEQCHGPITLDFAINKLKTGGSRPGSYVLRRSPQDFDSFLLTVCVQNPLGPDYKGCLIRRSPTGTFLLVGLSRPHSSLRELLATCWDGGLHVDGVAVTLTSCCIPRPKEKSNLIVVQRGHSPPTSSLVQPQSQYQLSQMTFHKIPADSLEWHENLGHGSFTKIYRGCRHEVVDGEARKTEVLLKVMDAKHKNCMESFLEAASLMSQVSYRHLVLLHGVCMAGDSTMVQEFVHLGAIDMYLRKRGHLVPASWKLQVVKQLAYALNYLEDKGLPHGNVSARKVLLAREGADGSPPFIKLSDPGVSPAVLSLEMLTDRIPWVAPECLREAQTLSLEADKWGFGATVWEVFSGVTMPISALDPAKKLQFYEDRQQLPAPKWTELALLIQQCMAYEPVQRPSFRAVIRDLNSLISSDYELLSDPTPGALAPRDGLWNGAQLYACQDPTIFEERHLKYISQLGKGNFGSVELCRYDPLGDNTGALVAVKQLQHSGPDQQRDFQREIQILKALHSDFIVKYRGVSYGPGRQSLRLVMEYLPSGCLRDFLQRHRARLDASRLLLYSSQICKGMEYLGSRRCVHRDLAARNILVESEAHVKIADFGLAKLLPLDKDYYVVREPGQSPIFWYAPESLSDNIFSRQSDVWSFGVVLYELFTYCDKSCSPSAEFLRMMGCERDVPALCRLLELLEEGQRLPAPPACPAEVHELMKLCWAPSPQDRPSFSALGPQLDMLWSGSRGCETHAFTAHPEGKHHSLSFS
SMILES,"IC50 [1, 3]","IC50 [2, 4]",IC50 ([1]; read-out: biochemical IC50 against ITK),IC50 ([2]; read-out: biochemical IC50 against JAK3),IC50 ([1]; read-out: ITK kinase inhibition)
"Cc1c[nH]c2ncc(-c3cccc(NC(=O)C4CCCN4)c3)cc12 (centres unmarked) [Example 71, N-(3-(3-methyl-1H-pyrrolo[2,3-b]pyridin-5-yl)phenyl)pyrrolidine-2-carboxamide]",> 100 nM,> 100 nM,,,
"C=CC(=O)N1CCCC1C(=O)Nc1cccc(-c2cnc3[nH]cc(C)c3c2)c1 (centres unmarked) [Example 72, 1-acryloyl-N-(3-(3-methyl-1H-pyrrolo[2,3-b]pyridin-5-yl)phenyl)pyrrolidine-2-carboxamide]",> 100 nM,> 100 nM,,,
"C=CC(=O)Nc1cccc(-c2cnc3[nH]cc(-c4cc5ccccc5[nH]4)c3c2)c1 [Example 74, N-(3-(3-(1H-indol-2-yl)-1H-pyrrolo[2,3-b]pyridin-5-yl)phenyl)acrylamide]",> 1000 nM,> 100 nM,,,
"C=CC(=O)Nc1cccc(-c2cnc3[nH]cc(-c4cc5ccc(C)cc5[nH]4)c3c2)c1 [Example 75, N-(3-(3-(6-methyl-1H-indol-2-yl)-1H-pyrrolo[2,3-b]pyridin-5-yl)phenyl)acrylamide]",> 1000 nM,< 100 nM,100 to 1000 nM,100 to 1000 nM,
"C=CC(=O)Nc1cccc(-c2cnc3[nH]cc(-c4cccc(C(N)=O)c4)c3c2)c1 [Example 76, 3-(5-(3-acrylamidophenyl)-1H-pyrrolo[2,3-b]pyridin-3-yl)benzamide]",> 100 nM,> 100 nM,,,
"C#CC(=O)Nc1cccc(-c2cnc3[nH]ccc3c2)n1 [Example 77, N-(6-(1H-pyrrolo[2,3-b]pyridin-5-yl)pyridin-2-yl)propiolamide]",< 100 nM,< 100 nM,,,
"CCC#CC(=O)Nc1cccc(-c2cnc3[nH]ccc3c2)n1 [Example 78, N-(6-(1H-pyrrolo[2,3-b]pyridin-5-yl)pyridin-2-yl)pent-2-ynamide]",< 100 nM,< 100 nM,,,
"C#CC(=O)Nc1cccc(-c2cnc3[nH]cc(Cl)c3c2)n1 [Example 79, N-(6-(3-chloro-1H-pyrrolo[2,3-b]pyridin-5-yl)pyridin-2-yl)propiolamide]",< 100 nM,< 100 nM,,,
"CCC#CC(=O)Nc1cccc(-c2cnc3[nH]cc(Cl)c3c2)n1 [Example 80, N-(6-(3-chloro-1H-pyrrolo[2,3-b]pyridin-5-yl)pyridin-2-yl)pent-2-ynamide]",< 100 nM,< 100 nM,,,
"CC#CC(=O)Nc1cccc(-c2cnc3[nH]ccc3c2)n1 [Example 81, N-(6-(1H-pyrrolo[2,3-b]pyridin-5-yl)pyridin-2-yl)but-2-ynamide]",< 100 nM,< 100 nM,,,
"CC#CC(=O)Nc1cccc(-c2cnc3[nH]cc(Cl)c3c2)n1 [Example 82, N-(6-(3-chloro-1H-pyrrolo[2,3-b]pyridin-5-yl)pyridin-2-yl)but-2-ynamide]",< 100 nM,< 100 nM,,,
"C#CC(=O)Nc1cc(-c2cnc3[nH]ccc3c2)ccc1F [Example 83, N-(2-fluoro-5-(1H-pyrrolo[2,3-b]pyridin-5-yl)phenyl)propiolamide]",> 1000 nM,< 100 nM,,,
"C#CC(=O)Nc1cc(-c2cnc3[nH]cc(Cl)c3c2)ccc1F [Example 84, N-(5-(3-chloro-1H-pyrrolo[2,3-b]pyridin-5-yl)-2-fluorophenyl)propiolamide]",> 1000 nM,< 100 nM,,,
"CCC#CC(=O)Nc1cc(-c2cnc3[nH]ccc3c2)ccc1F [Example 85, N-(2-fluoro-5-(1H-pyrrolo[2,3-b]pyridin-5-yl)phenyl)pent-2-ynamide]",> 1000 nM,< 100 nM,,,
"CCC#CC(=O)Nc1cc(-c2cnc3[nH]cc(Cl)c3c2)ccc1F [Example 86, N-(5-(3-chloro-1H-pyrrolo[2,3-b]pyridin-5-yl)-2-fluorophenyl)pent-2-ynamide]",> 100 nM,< 100 nM,,,
"CC#CC(=O)Nc1cc(-c2cnc3[nH]ccc3c2)ccc1F [Example 87, N-(2-fluoro-5-(1H-pyrrolo[2,3-b]pyridin-5-yl)phenyl)but-2-ynamide]",> 100 nM,< 100 nM,,,
"CCC#CC(=O)Nc1cccc(-c2cnc3[nH]cc(C)c3c2)n1 [Example 90, N-(6-(3-methyl-1H-pyrrolo[2,3-b]pyridin-5-yl)pyridin-2-yl)pent-2-ynamide]",< 100 nM,< 100 nM,,,
"CC#CC(=O)Nc1cccc(-c2cnc3[nH]cc(C)c3c2)n1 [Example 91, N-(6-(3-methyl-1H-pyrrolo[1,3-b]pyridin-5-yl)pyridin-2-yl)but-2-ynamide]",< 100 nM,< 100 nM,,,
"C#CC(=O)Nc1cc(-c2cnc3[nH]cc(C)c3c2)ccc1F [Example 92, N-(2-fluoro-5-(3-methyl-1H-pyrrolo[2,3-b]pyridin-5-yl)phenyl)propiolamide]",< 100 nM,< 100 nM,,,
"CC#CC(=O)Nc1cc(-c2cnc3[nH]cc(C)c3c2)ccc1F [Example 93, N-(2-fluoro-5-(3-methyl-1H-pyrrolo[2,3-b]pyridin-5-yl)phenyl)but-2-ynamide]",> 100 nM,> 100 nM,,,
"CC#CC(=O)Nc1cccc(-c2cnc3[nH]cc(-c4cccc(S(=O)(=O)N(C)C(C)(C)C)c4)c3c2)c1 [Example 94, N-(3-(3-(3-(N-(tert-butyl)-N-methylsulfamoyl)phenyl)-1H-pyrrolo[2,3-b]pyridin-5-yl)phenyl)but-2-ynamide]",,> 100 nM,,,> 100 nM
"C#CC(=O)Nc1cccc(-c2cnc3[nH]cc(-c4cccc(S(=O)(=O)N(C)C(C)(C)C)c4)c3n2)c1 [Example 95, N-(3-(7-(3-(N-(tert-butyl)-N-methylsulfamoyl)phenyl)-5H-pyrrolo[2,3-b]pyrazin-2-yl)phenyl)propiolamide]",> 100 nM,> 100 nM,,,
"CCC#CC(=O)Nc1cccc(-c2cnc3[nH]cc(-c4cccc(S(=O)(=O)N(C)C(C)(C)C)c4)c3n2)c1 [Example 96, N-(3-(7-(3-(N-(tert-butyl)-N-methylsulfamoyl)phenyl)-5H-pyrrolo[2,3-b]pyrazin-2-yl)phenyl)pent-2-ynamide]",> 100 nM,> 100 nM,,,
"C#CC(=O)Nc1cccc(-c2cnc3[nH]cc(-c4cc(F)cc(F)c4OC)c3c2)c1 [Example 98, N-(3-(3-(3,5-difluoro-2-methoxyphenyl)-1H-pyrrolo[2,3-b]pyridin-5-yl)phenyl)propiolamide]",> 100 nM,> 100 nM,,,
"COc1c(F)cc(F)cc1-c1c[nH]c2ncc(-c3cc(NC(=O)/C=C/CN(C)C)ccc3F)cc12 [Example 133, (E)-N-(3-(3-(3,5-difluoro-2-methoxyphenyl)-1H-pyrrolo[2,3-b]pyridin-5-yl)-4-fluorophenyl)-4-(dimethylamino)but-2-enamide]",> 100 nM,> 100 nM,,,
"COc1cc(F)c(C)cc1-c1c[nH]c2ncc(-c3cccc(NC(=O)/C=C/CN(C)C)c3)cc12 [Example 138, (E)-4-(dimethylamino)-N-(3-(3-(4-fluoro-2-methoxy-5-methylphenyl)-1H-pyrrolo[2,3-b]pyridin-5-yl)phenyl)but-2-enamide]",> 100 nM,> 100 nM,,,
"C=CC(=O)Nc1cccc(-c2cnc3[nH]cc(-c4cc(C)c(F)cc4OC)c3c2)c1 [Example 140, N-(3-(3-(4-fluoro-2-methoxy-5-methylphenyl)-1H-pyrrolo[2,3-b]pyridin-5-yl)phenyl)acrylamide]",> 1000 nM,> 100 nM,,,
